The test system of series [1] is NCI-H1975 (EGFR-L858R-T790M) cells. Description: Inhibitory activity on proliferation of NCI-H1975 (EGFR-L858R-T790M) cells (CTG, 72 h). The note with it: Homo sapiens. It is filed as cell-based. In outline: (§1)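 IC50 values come from S-shaped dose-survival fits of CTG signal expressed as % of vehicle. Compound exposure lasted 72 h at 37 °C with 0.1% DMSO; seeding was 3000 A431 cells/well in DMEM+10% FBS and 1000 NCI-H1975 cells/well in RPMI1640+10% FBS.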

For another series, the system named is A431 (EGFR-WT) cells. As to the kind of experiment: Inhibitory activity on proliferation of A431 (EGFR-WT) cells (CTG, 72 h). It is filed as cell-based. The note with it: Homo sapiens, A-431. In outline: as §1
The subject of series [2] is NCI-H1975 EGFR-L858R-T790M-C797S cells. Description: Inhibitory activity on proliferation of NCI-H1975 EGFR-L858R-T790M-C797S cells (CellTiter-Glo, 72 h). The format is cell-based. The note with it: Homo sapiens. In outline: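 Cells (1500/well) exposed to graded compound concentrations for 72 h at 37 °C in hygromycin-free RPMI1640 + 10% FBS, 0.1% DMSO vehicle. Viability by CellTiter-Glo luminescence relative to vehicle; IC50 from nonlinear sigmoidal dose-survival fit.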
(In ATP-based viability assays light output follows the ATP content of the culture.)

Series [3] can be described thus: Pharmacokinetic test in mice. The note with it: male, ICR, mouse, po, administration i.g. (10 mg/kg), plasma. The format is in vivo. The procedure, abridged:
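Male ICR mice (20-25 g), fasted 12-14 h before dosing and fed 4 h after, received a single intravenous or intragastric dose. Orbital plasma sampled from 0 to 24 h (5 min-24 h points); LC-MS/MS quantitation for PK parameters and bioavailability.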

Series [4] addresses T1, EGFR protein in NCI-H1975 EGFR-L858R-T790M-C797S cells (Homo sapiens, UniProt P00533, C797S/L858R/T790M).
T1 construct: expressed in transfected cells; host or cells: NCI-H1975 EGFR-L858R-T790M-C797S (kept under hygromycin selection)
Description: Degradation activity on EGFR protein in NCI-H1975 EGFR-L858R-T790M-C797S cells, Method I (western blot, 72 h). It is filed as cell-based. Particulars: 72 h incubation, EGFR protein relative to DMSO control. As to the method:
(§2) Protein sample preparation: NCI-H1975 EGFR-L858R-T790M-C797S cells were cultured in an incubator at 37° C. with 5% CO2, and the culture medium was RPMI1640+10% FBS+100 μg/mL hygromycin. The cells in the logarithmic phase were collected, and the cell suspension was adjusted to an appropriate concentration with a hygromycin-free culture medium, plated on a 6-well plate at a density of 200000 cells/well and a volume of 2 mL, and cultured overnight in an incubator at 37° C. with 5% CO2. The next day, the compounds at different concentrations were added. DMSO control wells were provided, wherein the concentration of DMSO in all wells was 0.1%. The 6-well plate was cultured in an incubator at 37° C. with 5% CO2 for 72 h, and then 30 μL of RIPA lysates (Beyotime, Cat. P0013B) containing protease inhibitors (Beyotime, Cat. P0013B) were added. The mixtures were lysed on ice for 30 min. Centrifugation was carried out at 13000 rpm/min at 4° C. for 20 min to collect protein supernatant samples, and protein quantification was performed by the BCA method. Samples for western blot detection were prepared.
(§3) Western blot detection: 20 μg of protein samples were added to each well, subjected to polyacrylamide gel electrophoresis and transferred to a membrane, and then diluted anti-EGFR (CST, Cat. 4267S) and […] (Kangchen, Cat. KC-5G4) antibodies were added and incubated overnight at 4° C. After washing the membrane, diluted goat anti-rabbit (Licor, Cat. 926-32211) and goat anti-mouse (Licor, Cat. 926-68070) antibodies were added and incubated in the dark for 45 min. Scanning and detection at wavelengths of 700 nm and 800 nm were performed with a far-infrared imaging system (Odyssey).
(§4) According to formula (3), the expression level of EGFR protein in the cells relative to the DMSO control group was calculated after incubation with different concentrations of compounds. wherein EGFRcompound was the fluorescence value of EGFR protein after incubation with compounds, and EGFRvehicle was the fluorescence value of EGFR protein in the DMSO control group. Using the Origin 9.2 software, the drug concentration DC50 values when the expression level of EGFR protein was 50% relative to the DMSO control group were calculated.

In series [5] the target is T1, EGFR protein in NCI-H1975 EGFR-L858R-T790M-C797S cells. As to the kind of experiment: Degradation activity on EGFR protein in NCI-H1975 EGFR-L858R-T790M-C797S cells, Method II (western blot, 48 h). It is filed as cell-based. Particulars: 48 h incubation, EGFR protein relative to DMSO control. The method, then:
as §2, with “of 350000” for “of 200000”, “for 48” for “for 72”, “20 minutes” for “20 min”, “method. Western Blot” for “method. Samples for western blot”, “detection samples” for “detection”
as §3, §4
For orientation: Immunoblotting shows a protein as a band on a membrane.

The mark [6] stands for this setting: read-out: IC50 (value in brackets).

Where two headings read alike, the source gives them in different places.

T1 sequence (P00533 25-1210 T790M/C797S/L858R): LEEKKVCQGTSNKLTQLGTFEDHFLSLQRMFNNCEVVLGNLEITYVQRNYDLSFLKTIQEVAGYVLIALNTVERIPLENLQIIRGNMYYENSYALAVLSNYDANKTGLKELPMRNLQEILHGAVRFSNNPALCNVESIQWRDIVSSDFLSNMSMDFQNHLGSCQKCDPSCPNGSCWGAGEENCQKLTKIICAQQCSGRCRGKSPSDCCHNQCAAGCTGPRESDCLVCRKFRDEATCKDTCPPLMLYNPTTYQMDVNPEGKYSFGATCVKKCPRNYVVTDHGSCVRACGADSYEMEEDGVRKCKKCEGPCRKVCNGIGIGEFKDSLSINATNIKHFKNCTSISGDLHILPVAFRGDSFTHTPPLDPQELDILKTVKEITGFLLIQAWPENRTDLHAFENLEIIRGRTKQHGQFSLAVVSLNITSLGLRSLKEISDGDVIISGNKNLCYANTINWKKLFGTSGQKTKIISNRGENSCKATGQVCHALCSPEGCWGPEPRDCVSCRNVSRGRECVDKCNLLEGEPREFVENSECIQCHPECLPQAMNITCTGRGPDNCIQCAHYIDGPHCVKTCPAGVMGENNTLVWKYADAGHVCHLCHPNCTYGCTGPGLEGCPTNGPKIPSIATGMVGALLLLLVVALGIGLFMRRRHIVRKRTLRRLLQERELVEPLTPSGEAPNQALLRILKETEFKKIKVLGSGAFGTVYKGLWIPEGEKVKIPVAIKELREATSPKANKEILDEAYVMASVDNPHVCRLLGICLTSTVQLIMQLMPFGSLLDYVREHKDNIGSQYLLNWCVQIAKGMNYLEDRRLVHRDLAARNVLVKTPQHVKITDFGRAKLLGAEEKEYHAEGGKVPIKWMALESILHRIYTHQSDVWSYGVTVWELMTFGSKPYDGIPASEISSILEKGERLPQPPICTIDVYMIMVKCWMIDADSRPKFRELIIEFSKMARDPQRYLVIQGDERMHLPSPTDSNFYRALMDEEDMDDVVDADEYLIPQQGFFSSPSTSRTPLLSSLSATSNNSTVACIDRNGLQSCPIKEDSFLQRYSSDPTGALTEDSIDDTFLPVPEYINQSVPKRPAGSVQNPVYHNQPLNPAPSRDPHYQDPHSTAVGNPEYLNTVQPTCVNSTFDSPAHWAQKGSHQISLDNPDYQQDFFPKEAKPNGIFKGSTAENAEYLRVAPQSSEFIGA

`COc1cc(N2CCN(CC3CCN(c4ccc5c(c4)C(=O)N(C4CCC(=O)NC4=O)C5=O)CC3)CC2)c(-c2cnn(C)c2)cc1Nc1ncc(Br)c(Nc2ccc(-c3ccccc3F)cc2P(C)(C)=O)n1` (stereo not shown) [Compound 96, 5-(4-((4-(4-((5-bromo-4-((3-(dimethylphosphoryl)-2′-fluoro-[1,1′-biphenyl]-4-yl)amino)pyrimidin-2-yl)amino)-5-methoxy-2-(1-methyl-1H-pyrazol-4-yl)phenyl)piperazin-1-yl)methyl)piperidin-1-yl)-2-(2,6-dioxopiperidin-3-yl)isoindoline-1,3-dione]: the IC50 in series [1] (read-out: IC50 (class symbol)) is under 100 nM; in series [1] (setting [6]) it was 36 nM; in the series with A431 (EGFR-WT) cells, at least 10000 nM; in series [2] (read-out: IC50 (class symbol)), under 200 nM; in series [2] (read-out: IC50 (value)), 60 nM. The compound also had an AUC(0-t) in series [3] of 47000 ng·h/mL. In series [4], this compound yielded a DC50 of under 100 nM.

`COc1cc(N2CCN(CC3CCN(c4ccc5c(c4)C(=O)N(C4CCC(=O)NC4=O)C5=O)CC3)CC2)c(-c2cnn(C)c2)cc1Nc1ncc(Cl)c(Nc2ccc(-c3ccccc3F)cc2P(C)(C)=O)n1` (stereo not shown) [Compound 97, 5-(4-((4-(4-((5-chloro-4-((3-(dimethylphosphoryl)-2′-fluoro-[1,1′-biphenyl]-4-yl)amino)pyrimidin-2-yl)amino)-5-methoxy-2-(1-methyl-1H-pyrazol-4-yl)phenyl)piperazin-1-yl)methyl)piperidin-1-yl)-2-(2,6-dioxopiperidin-3-yl)isoindoline-1,3-dione]: the IC50 was under 100 nM in series [1] (read-out: IC50 (class symbol)); 62 nM in series [1] (setting [6]); at least 10000 nM with A431 (EGFR-WT) cells; under 200 nM in series [2] (read-out: IC50 (class symbol)); 79 nM in series [2] (read-out: IC50 (value)). Also, in series [3], the AUC(0-t) came out at 42300 ng·h/mL. In addition, the 50% degradation concentration (DC50) in series [4] was under 100 nM.

For `COc1cc(N2CCN(C3CCN(c4ccc5c(c4)C(=O)N(C4CCC(=O)NC4=O)C5=O)CC3)CC2)c(-c2cnn(C)c2)cc1Nc1ncc(Br)c(Nc2ccc(-c3ccccc3)cc2P(C)(C)=O)n1` (stereo not shown) [Compound 99, 5-(4-(4-(4-((5-bromo-4-((3-(dimethylphosphoryl)-[1,1′-biphenyl]-4-yl)amino)pyrimidin-2-yl)amino)-5-methoxy-2-(1-methyl-1H-pyrazol-4-yl)phenyl)piperazin-1-yl)piperidin-1-yl)-2-(2,6-dioxopiperidin-3-yl)isoindoline-1,3-dione], the IC50 in series [1] (read-out: IC50 (class symbol)) was under 100 nM; in series [1] (setting [6]), 33 nM; with A431 (EGFR-WT) cells it was at least 10000 nM; in series [2] (read-out: IC50 (class symbol)), under 200 nM; in series [2] (read-out: IC50 (value)) it was 57 nM. In series [3], the AUC(0-t) amounted to 25000 ng·h/mL. The same compound came in with a DC50 in series [4] of under 100 nM.

On to `COc1cc(N2CCN(C3CCN(c4ccc5c(c4)C(=O)N(C4CCC(=O)NC4=O)C5=O)CC3)CC2)c(-c2cnn(C)c2)cc1Nc1ncc(Cl)c(Nc2ccc(-c3ccccc3)cc2P(C)(C)=O)n1` (stereo not shown) [Compound 100, 5-(4-(4-(4-((5-chloro-4-((3-(dimethylphosphoryl)-[1,1′-biphenyl]-4-yl)amino)pyrimidin-2-yl)amino)-5-methoxy-2-(1-methyl-1H-pyrazol-4-yl)phenyl)piperazin-1-yl)piperidin-1-yl)-2-(2,6-dioxopiperidin-3-yl)isoindoline-1,3-dione], for which the IC50 is under 100 nM in series [1] (read-out: IC50 (class symbol)); 48 nM in series [1] (setting [6]); at least 10000 nM in the series with A431 (EGFR-WT) cells; under 200 nM in series [2] (read-out: IC50 (class symbol)); 84 nM in series [2] (read-out: IC50 (value)). Further, the AUC in series [3] stood at 33300 ng·h/mL. Moreover, the half-life in series [3] is 2.49 h. For the same compound, the DC50 in series [4] was under 100 nM.

As for `COc1cc(N2CCC(CN3CCN(c4ccc5c(c4)C(=O)N(C4CCC(=O)NC4=O)C5=O)CC3)CC2)c(-c2cnn(C)c2)cc1Nc1ncc(Cl)c(Nc2ccccc2P(C)(C)=O)n1` (stereo not shown) [Compound 109, 5-(4-((1-(4-((5-chloro-4-((2-(dimethylphosphoryl)phenyl)amino)pyrimidin-2-yl)amino)-5-methoxy-2-(1-methyl-1H-pyrazol-4-yl)phenyl)piperidin-4-yl)methyl)piperazin-1-yl)-2-(2,6-dioxopiperidin-3-yl)isoindoline-1,3-dione], the IC50 is under 100 nM in series [1] (read-out: IC50 (class symbol)), 52 nM in series [1] (setting [6]) and at least 10000 nM in the series on A431 (EGFR-WT) cells. This compound also yielded an AUC in series [3] of 81500 ng·h/mL. This compound also gave a half-life in series [3] of 4.53 h. For the same compound, in series [5], the DC50 is under 100 nM.

On to `COc1cc(N2CCC(N3CCN(c4ccc5c(c4)C(=O)N(C4CCC(=O)NC4=O)C5=O)CC3)CC2)c(-c2cnn(C)c2)cc1Nc1ncc(Br)c(Nc2ccc(C3CC3)cc2P(C)(C)=O)n1` (stereo not shown) [Compound 112, 5-(4-(1-(4-((5-bromo-4-((4-cyclopropyl-2-(dimethylphosphoryl)phenyl)amino)pyrimidin-2-yl)amino)-5-methoxy-2-(1-methyl-1H-pyrazol-4-yl)phenyl)piperidin-4-yl)piperazin-1-yl)-2-(2,6-dioxopiperidin-3-yl)isoindoline-1,3-dione], for which the IC50 was under 100 nM in series [1] (read-out: IC50 (class symbol)); 83 nM in series [1] (setting [6]); at least 10000 nM in the series on A431 (EGFR-WT) cells; under 200 nM in series [2] (read-out: IC50 (class symbol)); 127 nM in series [2] (read-out: IC50 (value)). The DC50 in series [5] is under 100 nM.

In the case of `COc1cc(N2CCC(N3CCN(c4ccc5c(c4)C(=O)N(C4CCC(=O)NC4=O)C5=O)CC3)CC2)c(-c2cnn(C)c2)cc1Nc1ncc(Cl)c(Nc2ccc(C3CC3)cc2P(C)(C)=O)n1` (stereo not shown) [Compound 113, 5-(4-(1-(4-((5-chloro-4-((4-cyclopropyl-2-(dimethylphosphoryl)phenyl)amino)pyrimidin-2-yl)amino)-5-methoxy-2-(1-methyl-1H-pyrazol-4-yl)phenyl)piperidin-4-yl)piperazin-1-yl)-2-(2,6-dioxopiperidin-3-yl)isoindoline-1,3-dione], the IC50 in series [1] (read-out: IC50 (class symbol)) was under 100 nM; in series [1] (setting [6]) it was 68 nM; in the series on A431 (EGFR-WT) cells it was at least 10000 nM. The same compound showed a DC50 in series [5] of under 100 nM.

As for `COc1cc(N2CCN(C[C@@H]3CCN(c4ccc5c(c4)C(=O)N(C4CCC(=O)NC4=O)C5=O)C3)CC2)c(-c2cnn(C)c2)cc1Nc1ncc(Br)c(Nc2ccc(-c3ccccc3F)cc2P(C)(C)=O)n1` (stereo partly drawn) [Compound 116, 5-((S)-3-((4-(4-((5-bromo-4-((3-(dimethylphosphoryl)-2′-fluoro-[1,1′-biphenyl]-4-yl)amino)pyrimidin-2-yl)amino)-5-methoxy-2-(1-methyl-1H-pyrazol-4-yl)phenyl)piperazin-1-yl)methyl)pyrrolidin-1-yl)-2-(2,6-dioxopiperidin-3-yl)isoindoline-1,3-dione], the IC50 was under 100 nM in series [1] (read-out: IC50 (class symbol)), 94 nM in series [1] (setting [6]) and at least 10000 nM in the series with A431 (EGFR-WT) cells. In series [5], this compound returned a DC50 of under 100 nM.

What is called IC50 is the midpoint of a concentration-inhibition curve. Usually AUC(0-t) stands for exposure summed from dosing to a finite time, without extrapolation to infinity. A higher AUC(0-t) goes with more exposure. One may read the DC50 as the concentration at which degradation of the target reaches its halfway point. A higher DC50 goes with a less potent degrader. One may read the AUC as the area under the concentration-time curve, a measure of exposure. As usually defined, the half-life is the time needed for the level to fall by half in the phase considered.

These data come from patent publication US20240269298A1, “PHOSPHONYL DERIVATIVE, AND COMPOSITION AND PHARMACEUTICAL APPLICATION THEREOF” (XIZANG HAISCO PHARMACEUTICAL CO., LTD., priority 2021, published 2024).
